Data on two compounds can be found in US20200405867A1, “ORAL DOSAGE FORMS” (Sunovion Pharmaceuticals Inc., priority 2018, published 2020).

Broadly, the solubility is how much of the substance goes into solution per volume. Low values mean little dissolved substance, high ones much dissolved substance.

Counter-ions that a name gives are not always drawn. Like-named read-outs stand apart in the source and are kept apart here.

The nature of data set [1]: physchem. The class given is physicochemical. The source says: To make a solution, one must attain sufficient solubility to achieve efficacious levels of an active pharmaceutical ingredient (API) while avoiding precipitation.
The format of data set [2] is physicochemical. To be noted: for impurities: four weeks. An excerpt:
A solution must be stable for commercially reasonable periods. […] In experimenting with buffering agents such as tartrate and citrate, precipitation of dasotraline HCl was discovered.

The format of data set [3] is physicochemical. The source says: In addition to chemical/physical stability, the formulation must remain free of microbial growth for commercially reasonable periods. Several common preservatives failed when combined with dasotraline HCl and malate buffer.
For data set [4] the following is noted: capsule, doses of 1 to 8 mg, adult or adolescent; cited from earlier work.

On to `N[C@@H]1CC[C@@H](c2ccc(Cl)c(Cl)c2)c2ccccc21` [dasotraline HCl], for which the “pH window of maximal solubility in water” value in data set [1] was 2.0-3.0 pH. The solubility in data set [1] (pH 2.2, aqueous buffer) came to 1.9 mg/mL; in data set [1] (pH 2.7, aqueous buffer), 2.2 mg/mL; in data set [1] (pH 3, aqueous buffer), 2.1 mg/mL; in data set [1] (pH 3.4, aqueous buffer) it was 1.3 mg/mL; in data set [1] (pH 3.9, aqueous buffer), 0.8 mg/mL; in data set [1] (pH 4.4, aqueous buffer), 0.6 mg/mL. Further, the solubility in data set [1] (pH 4.9, aqueous buffer) stood at 0.4 mg/mL. The impurities result in data set [2] (10 mM malate buffer, pH≤3.5, 60° C.) is recorded as “no detectable impurities”; in data set [2] (higher (25 mM) malate buffer amount, pH>3, 60° C.), > 0.1%; in data set [3] (malate buffer, 5% propylene glycol, further stress beyond four weeks at 60° C.), > 0.1%. In addition, the “physical stability of solution” value was “precipitation” in data set [2] (pH 3), “precipitation” in data set [2] (pH 3.5), “precipitation” in data set [2] (pH 5) and “induced precipitation” in data set [3]. Besides, the figures for the stability of solution result in data set [3] and in data set [3] (4 weeks) were “stable solution under all conditions tested” and “effective up to four weeks at 60 °C”, respectively.
`N[C@@H]1CC[C@@H](c2ccc(Cl)c(Cl)c2)c2ccccc21` [dasotraline, (1R,4S)-4-(3,4-dichlorophenyl)-1,2,3,4-tetrahydronaphthalen-1-amine]: in data set [4], the abuse liability entry is listed as “no detectable abuse liability” and the “efficacy in treating ADHD” value is “effective in treating ADHD”.
